Activity calls are given as the source filed them. The calls are words filed in the database; no cut-off is given here.
Tests used:
Type in all cases: functional, organism-based
[1] = system: Dolichospermum flos-aquae; assay: Antialgal activity against Anabaena flos-aquae NIES 73 after 48 hrs by fluorophotometric method
[2] = system: Microcystis aeruginosa; assay: Antialgal activity against Microcystis aeruginosa NIES 44 after 24 hrs by fluorophotometric method
[3] = system: Microcystis aeruginosa; assay: Antialgal activity against Microcystis aeruginosa NIES 44 up to 500 uM after 24 hrs by fluorophotometric method

SMILES | IC50 [1] [µM] | IC50 [2] [µM] | Activity [3]
O=C(O[C@@H]1[C@@H](OC(=O)c2cc(O)c(O)c(O)c2)[C@H](O)O[C@@H]2COC(=O)c3cc(O)c(O)c(O)c3-c3c(cc(O)c(O)c3O)C(=O)O[C@@H]12)c1cc(O)c(O)c(O)c1 | 9.5 | 3.7 | 
O=c1c(O[C@@H]2O[C@@H](CO)[C@H](O)[C@H]2O)c(-c2ccc(O)c(O)c2)oc2cc(O)cc(O)c12 [AVICULARIN] | 28 | 180 | 
O=C(O[C@@H]1O[C@@H]2COC(=O)c3cc(O)c(O)c(O)c3-c3c(cc(O)c(O)c3O)C(=O)O[C@H]2[C@H](OC(=O)c2cc(O)c(O)c(O)c2)[C@H]1OC(=O)c1cc(O)c(O)c(O)c1)c1cc(O)c(O)c(O)c1 [EUGENIIN] | 2.8 | 1.6 | 
O=c1c(O)c(-c2ccc(O)c(O)c2)oc2cc(O)cc(O)c12 [QUERCETIN] | 25 | 12 | 
C[C@@H]1O[C@@H](Oc2c(-c3ccc(O)c(O)c3)oc3cc(O)cc(O)c3c2=O)[C@H](O)[C@H](O)[C@H]1O [QUERCITRIN] | 45 | 9 | 
OC[C@H]1OC(O)[C@H](O)[C@@H](O)[C@@H]1O (stereo partly drawn) |  |  | inactive
O=C(O)c1cc(O)c(O)c(O)c1 [GALLIC ACID] | 33 | 19 | 

From ChEMBL document CHEMBL1147318, “Inhibitory Substances from Myriophyllum brasiliense on Growth of Blue-Green Algae” (J Nat Prod, 1989)
